Values of other authors in patent publication US20240033215A1 (AMOS PHARM, priority 2022, published 2024).
Values after ≈ are worked out from the molar mass of the structure shown. Read-outs that look alike come from different tables or passages of the source.

- solubility (at acidic pH): 0.078 mg/mL (≈ 0.378 mM)
- solubility (at alkaline pH): 291 mg/mL (≈ 1410 mM)
Compound: CC(C)Cc1ccc([C@H](C)C(=O)O)cc1 [Dexibuprofen]
